Molecules are shown by their SMILES. A value given as a limit tells only on which side of the number the result lay.

Broadly, the IC50 is the concentration that inhibits the measured activity by half.

One experiment has as its target T1, Human NPY1 Receptor (Homo sapiens, UniProt P25929).
T1 sequence (P25929 1-384): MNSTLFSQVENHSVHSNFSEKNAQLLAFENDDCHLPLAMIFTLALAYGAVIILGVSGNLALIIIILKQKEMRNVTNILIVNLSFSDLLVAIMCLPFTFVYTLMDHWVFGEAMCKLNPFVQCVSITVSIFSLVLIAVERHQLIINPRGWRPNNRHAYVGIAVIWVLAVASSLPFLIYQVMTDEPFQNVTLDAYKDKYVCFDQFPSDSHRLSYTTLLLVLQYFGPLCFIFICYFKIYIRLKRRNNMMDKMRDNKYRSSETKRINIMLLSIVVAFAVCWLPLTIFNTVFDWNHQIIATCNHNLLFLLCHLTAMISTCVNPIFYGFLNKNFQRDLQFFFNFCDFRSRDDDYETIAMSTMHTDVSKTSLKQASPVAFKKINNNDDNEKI
The experiment can be described thus: Human NPY1 Receptor Binding Assay. The settings on record: SK-N-MC cells, [125I]PYY; read-out: hNPY1 IC50.

The target in another experiment is T2, Human NPY2 receptor (Homo sapiens, UniProt P49146).
T2 sequence (P49146 1-381): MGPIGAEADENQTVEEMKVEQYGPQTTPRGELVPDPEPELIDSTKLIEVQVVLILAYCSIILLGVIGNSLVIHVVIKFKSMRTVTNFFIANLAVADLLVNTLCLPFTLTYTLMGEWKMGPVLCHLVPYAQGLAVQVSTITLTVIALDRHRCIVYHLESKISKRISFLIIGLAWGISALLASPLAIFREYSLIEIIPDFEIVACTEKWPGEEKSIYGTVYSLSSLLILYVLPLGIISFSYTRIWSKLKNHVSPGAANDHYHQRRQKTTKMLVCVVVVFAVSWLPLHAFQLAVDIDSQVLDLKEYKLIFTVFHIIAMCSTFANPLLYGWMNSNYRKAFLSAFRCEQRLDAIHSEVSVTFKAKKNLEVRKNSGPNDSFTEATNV
Briefly: Human NPY2 Receptor Binding Assay. The settings on record: [125I]PYY; read-out: hPPY2 IC50.

Another experiment deals with Human NPY4/PP1 receptor (Homo sapiens, UniProt P50391). Briefly: Human NPY4/PP1 Receptor Binding Assay. The settings on record: [125I]human PP; read-out: hNPY4 IC50.
Chain of Human NPY4/PP1 receptor (P50391 whole entry): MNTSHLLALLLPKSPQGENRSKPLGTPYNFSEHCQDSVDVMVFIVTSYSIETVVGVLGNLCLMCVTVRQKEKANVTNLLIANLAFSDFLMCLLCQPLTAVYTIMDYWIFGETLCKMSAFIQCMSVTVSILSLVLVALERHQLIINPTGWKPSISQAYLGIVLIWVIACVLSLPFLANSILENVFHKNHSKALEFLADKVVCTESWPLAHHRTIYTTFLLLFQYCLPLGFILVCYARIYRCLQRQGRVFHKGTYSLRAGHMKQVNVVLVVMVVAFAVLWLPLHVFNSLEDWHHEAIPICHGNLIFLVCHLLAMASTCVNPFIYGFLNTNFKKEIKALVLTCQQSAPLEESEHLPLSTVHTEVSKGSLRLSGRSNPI
Another experiment has as its target T3, Human NPY5 Receptor (Homo sapiens, UniProt Q15761).
T3 sequence (Q15761 1-445): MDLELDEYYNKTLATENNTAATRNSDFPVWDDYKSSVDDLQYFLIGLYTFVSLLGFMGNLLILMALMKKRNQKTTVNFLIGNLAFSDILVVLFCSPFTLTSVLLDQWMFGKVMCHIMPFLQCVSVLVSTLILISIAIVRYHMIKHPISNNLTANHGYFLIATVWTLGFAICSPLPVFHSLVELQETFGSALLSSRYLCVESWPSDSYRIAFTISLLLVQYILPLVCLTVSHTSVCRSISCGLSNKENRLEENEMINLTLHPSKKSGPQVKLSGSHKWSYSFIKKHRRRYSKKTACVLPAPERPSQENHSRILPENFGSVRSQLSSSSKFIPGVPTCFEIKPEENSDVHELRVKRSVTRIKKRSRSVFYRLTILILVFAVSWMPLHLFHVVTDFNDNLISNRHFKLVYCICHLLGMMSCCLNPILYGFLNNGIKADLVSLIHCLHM
The experiment can be described thus: Human NPY5 Receptor Binding Assay. The settings on record: [125I]PYY; read-out: hNPY5 IC50.

Another experiment has as its target T4, Rat NPY5 Receptor (Rattus norvegicus, UniProt Q63634).
T4 sequence (Q63634 1-445): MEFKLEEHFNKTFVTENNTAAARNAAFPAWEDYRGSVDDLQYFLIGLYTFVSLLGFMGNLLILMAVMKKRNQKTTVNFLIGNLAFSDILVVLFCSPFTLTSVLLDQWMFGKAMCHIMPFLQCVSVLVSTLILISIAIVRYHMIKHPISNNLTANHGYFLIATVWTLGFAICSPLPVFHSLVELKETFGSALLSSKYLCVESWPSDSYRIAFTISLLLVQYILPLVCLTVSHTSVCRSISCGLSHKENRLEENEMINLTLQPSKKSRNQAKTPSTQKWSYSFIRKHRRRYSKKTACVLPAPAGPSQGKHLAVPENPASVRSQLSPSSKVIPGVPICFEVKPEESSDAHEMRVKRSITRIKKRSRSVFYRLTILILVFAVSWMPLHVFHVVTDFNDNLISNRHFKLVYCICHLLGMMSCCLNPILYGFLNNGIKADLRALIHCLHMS
The experiment can be described thus: Rat NPY5 Receptor Binding Assay. As to conditions: [125I]PYY; read-out: rNPY5 IC50.

Experimental for Human NPY2 receptor: Binding assays were performed on GF/C Millipore 96-well plates pretreated with 0.02% polyethylenimine. The binding buffer for rat Y2 binding is Krebs-Ringer bicarbonate (pH 7.4) containing 0.01% BSA and 0.005% bacitracin. Samples consist of membrane protein, 25 pM [125I]PYY and drug dilution. Nonspecific binding is defined by 1 μpM NPY.
After a 2 hour incubation at room temperature with constant mixing, the samples are aspirated on a vacuum manifold, and rinsed with ice-cold binding buffer. The amount of radioactivity in each well is quantitated with either gamma counting or liquid scintillation.

For `Cc1ccccc1NC(=O)CCC(Oc1ccccc1)C(=O)Nc1ccccc1C` (centres unmarked) [Compound 6, 2-Phenoxy-pentanedioic acid bis-o-tolylamide], the IC50 on Human NPY1 Receptor is over 5 µM; at Human NPY2 receptor, over 5 µM; at Human NPY4/PP1 receptor, over 5 µM; on Human NPY5 Receptor it was 0.16 µM; on Rat NPY5 Receptor it was 0.18 µM.

With `Cc1cc(-c2nnc(SCC(=O)Nc3ccc(C(F)(F)F)cc3)n2C)no1` [Compound 2, 2-[4-Methyl-5-(5-methyl-isoxazol-3-yl)-4H-[1,2,4]triazol-3-ylsultanyl]-N-(4-trifluoro-methyl-phenyl)-acetamide], the IC50 was over 5 µM at Human NPY1 Receptor; over 5 µM at Human NPY2 receptor; over 5 µM at Human NPY4/PP1 receptor; over 10 µM on Human NPY5 Receptor; over 10 µM on Rat NPY5 Receptor.

In the case of `CSc1ncc(-c2nnc(SCC(=O)Nc3ccc(Cl)cc3)n2C)n1C` [Compound 142, N-(4-Chloro-phenyl)-2-(4-methyl-5-(3-methyl-2-methylsulfanyl-3H-imidazol-4-yl)-4H-[1,2,4]triazol-3-ylsulfanyl]-acetamide, reference compound], the half-maximal inhibitory concentration (IC50) at Human NPY1 Receptor is over 5 µM; at Human NPY2 receptor, over 5 µM; on Human NPY4/PP1 receptor, over 5 µM; at Human NPY5 Receptor, over 10 µM; on Rat NPY5 Receptor, over 10 µM.

Regarding `Cn1ccnc1SCC(=O)Nc1ccc(Cl)cc1` [Compound 139, N-(4-Chloro-phenyl)-2-(1-methyl-1H-imidazoI-2-ylsulfanyl)-acetamide, reference compound], the IC50 on Human NPY1 Receptor was over 5 µM; at Human NPY2 receptor it was over 5 µM; on Human NPY4/PP1 receptor it was over 5 µM; at Human NPY5 Receptor it was over 10 µM; at Rat NPY5 Receptor, over 10 µM.

In the case of `O=C(CSc1ncc[nH]1)Nc1ccc(C(=O)c2ccccc2)cc1` [Compound 4, N-(4-Benzoyl-phenyl)-2-(1H-imidazol-2-ylsultanyl)-acetamide], the IC50 on Human NPY1 Receptor was over 5 µM; at Human NPY2 receptor it was over 5 µM; on Human NPY4/PP1 receptor it was over 5 µM; on Rat NPY5 Receptor, 0.36 µM.

As to `Cn1c(Cn2cc(C(F)(F)F)ccc2=O)nnc1SCC(=O)Nc1ccc(Cl)cc1` [Compound 175, N-(4-Chloro-phenyl)-2-[4-methyl-5-(2-oxo-5-trifluoromethyl-2H-pyridin-1-ylmethyl)-4H-[1,2,4]triazol-3-ylsulfanyl]-acetamide, reference compound], the IC50 was over 5 µM at Human NPY1 Receptor, over 5 µM on Human NPY2 receptor, over 5 µM on Human NPY4/PP1 receptor and 7 µM at Human NPY5 Receptor.

As for `CC(C)c1ccc(NC(=O)CSc2nnc(Cn3cc(C(F)(F)F)ccc3=O)n2C)cc1` [Compound 176, N-(4-isopropyl-phenyl)-2-[4-methyl-5-(2-oxo-5-trifluoromethyl-2H-yridin-1-ylmethyl)-4H-[1,2,4]triazol-3-ylsulfanyl]-acetamide, reference compound], the half-inhibitory concentration (IC50) was over 5 µM on Human NPY1 Receptor, over 5 µM on Human NPY2 receptor, over 5 µM on Human NPY4/PP1 receptor and 3 µM at Human NPY5 Receptor.

As for `Cn1cnnc1SCC(=O)Nc1ccc(C(C)(C)C)cc1` [Compound 164, N-(4-tert-Butyl-phenyl)-2-(4-methyl-4H-[1,2,4]triazol-3-ylsulfanyl)-acetamide, reference compound], the IC50 at Human NPY1 Receptor is over 5 µM; on Human NPY4/PP1 receptor, over 5 µM; on Human NPY5 Receptor, 1.6 µM; at Rat NPY5 Receptor it was 1.7 µM.

As for `Cn1cnnc1SCC(=O)Nc1ccc(F)cc1` [Compound 170, N-(4-Fluoro-phenyl)-2-(4-methyl-4H-[1,2,4]triazol-3-ylsulfanyl)-acetamide, reference compound], the IC50 is over 5 µM on Human NPY1 Receptor, over 5 µM on Human NPY4/PP1 receptor, over 10 µM on Human NPY5 Receptor and over 10 µM on Rat NPY5 Receptor.

Consider `CCC(C)c1ccc(NC(=O)CSc2nnnn2C)cc1` (centres unmarked) [Compound 171, N-(4-sec-Butyl-phenyl)-2-(1-methyl-1H-tetrazol-5-ylsulfanyl)-acetamide, reference compound], for which the IC50 at Human NPY1 Receptor was over 5 µM; at Human NPY4/PP1 receptor, over 5 µM; on Human NPY5 Receptor, 0.553 µM; on Rat NPY5 Receptor, 0.525 µM.

Source of the values: patent US6245817A, “NPY5 receptor antagonists and methods for using same” (Bayer Corporation, priority 1999, dated 2001).
